According to ChEMBL document CHEMBL1138970, “Structure-activity relationships of [2',5'-bis-O-(tert-butyldimethylsilyl)-beta-D-ribofuranosyl]- 3'-spiro-5' '-(4' '-amino-1' ',2' '-oxathiole-2' ',2' '-dioxide)thymine derivatives as inhibitors of HIV-1 reverse transcriptase dimerization” (J Med Chem, 2006):
pEC50, pIC50: −log10 of the molar value.

Key:
[1] = target: T1, Human immunodeficiency virus type 1 reverse transcriptase (Human immunodeficiency virus 1, UniProt Q72547); assay: Inhibition of HIV1 reverse transcriptase RNA-dependent DNA polymerase activity
[2] = test system: Human immunodeficiency virus 1; assay: Antiviral activity against HIV1 in MT4 cells; type: functional, organism-based; conditions: Human immunodeficiency virus 1, MT4
[3] = target: T1, Human immunodeficiency virus type 1 reverse transcriptase; assay: Inhibition of FLAG-p66/HIS-p51-mediated HIV1 reverse transcriptase dimerization
[4] = Inhibition of MT4 cell viability; type: cell-based; conditions: human, MT4 cells

`Cc1cn(C2OC(CO[Si](C)(C)C(C)(C)C)CC2O[Si](C)(C)C(C)(C)C)c(=O)n(CC(=O)O)c1=O` (stereo unspecified) gave a pIC50 [1] of 5.24, a pEC50 [2] of 5.19 and a pIC50 [3] of 5.96. It also gave a CC50 [4] of 17 µM.
Compound `Cc1cn([C@@H]2O[C@H](CO[Si](C)(C)C(C)(C)C)[C@@]3(OS(=O)(=O)C=C3N)[C@H]2O[Si](C)(C)C(C)(C)C)c(=O)[nH]c1=O` has a pIC50 [1] of 6.00, a pEC50 [2] of 7.22 and a pIC50 [3] of 5.17. The CC50 [4] was 14 µM.
`CCc1cn([C@@H]2O[C@H](CO[Si](C)(C)C(C)(C)C)[C@@]3(OS(=O)(=O)C=C3N)[C@H]2O[Si](C)(C)C(C)(C)C)c(=O)[nH]c1=O` showed a pIC50 [1] of 5.47, a pEC50 [2] of 7.22 and a pIC50 [3] of 5.07. The CC50 [4] was 20 µM.
For `Cc1cn([C@@H]2O[C@H](CO[Si](C)(C)C(C)(C)C)[C@@]3(OS(=O)(=O)C=C3N)[C@H]2O[Si](C)(C)C(C)(C)C)c(=O)n(C)c1=O`, the pIC50 [1] was 5.89, the pEC50 [2] was 7.22 and the pIC50 [3] was 5.24. The CC50 [4] was 240 µM.
`Cc1cn([C@@H]2O[C@H](CO[Si](C)(C)C(C)(C)C)[C@@]3(OS(=O)(=O)C(I)=C3N)[C@H]2O[Si](C)(C)C(C)(C)C)c(=O)[nH]c1=O` showed a pIC50 [1] of 5.10, a pEC50 [2] of 6.92 and a pIC50 [3] of 5.46. For the same compound, the CC50 [4] was 4 µM.
Compound `Cc1cn([C@@H]2O[C@H](CO[Si](C)(C)C(C)(C)C)[C@@]3(OS(=O)(=O)C=C3N)[C@H]2O[Si](C)(C)C(C)(C)C)c(=O)n(CC2CO2)c1=O` (stereo partly specified) has a pIC50 [1] of 5.62, a pEC50 [2] of 6.96 and a pIC50 [3] of 5.30. The CC50 [4] was 56 µM.
In the case of `Cc1cn([C@@H]2O[C@H](CO[Si](C)(C)C(C)(C)C)[C@@]3(OS(=O)(=O)C=C3N=C(N)N)[C@H]2O[Si](C)(C)C(C)(C)C)c(=O)[nH]c1=O`, the pIC50 [1] was 5.42, the pEC50 [2] was 6.02 and the pIC50 [3] was 4.85. For the same compound, the CC50 [4] was 87 µM.
`Cc1cn([C@@H]2O[C@H](CO[Si](C)(C)C(C)(C)C)[C@@]3(OS(=O)(=O)C=C3N)[C@H]2O[Si](C)(C)C(C)(C)C)c(=O)n(/C=C/CO)c1=O` gave a pIC50 [1] of 6.30, a pEC50 [2] of 7.40 and a pIC50 [3] of 5.72. The CC50 [4] was 4 µM.
Compound `CN(C)C(=O)c1cnnn1[C@@H]1O[C@H](CO[Si](C)(C)C(C)(C)C)[C@@]2(OS(=O)(=O)C=C2N)[C@H]1O[Si](C)(C)C(C)(C)C` has a pIC50 [1] of 5.19, a pEC50 [2] of 7.40 and a pIC50 [3] of 4.93. The CC50 [4] was 12 µM.
Work on `Cc1cn([C@@H]2O[C@H](CO[Si](C)(C)C(C)(C)C)[C@@]3(OS(=O)(=O)C=C3N)[C@H]2O[Si](C)(C)C(C)(C)C)c(=O)n(CCc2ccccc2)c1=O` yielded a pIC50 [1] of 6.10, a pEC50 [2] of 6.08 and a pIC50 [3] of 5.52. It also gave a CC50 [4] of 2 µM.
In the case of `Cc1cn([C@@H]2O[C@H](CO[Si](C)(C)C(C)(C)C)[C@@]3(OS(=O)(=O)C=C3N)[C@H]2O[Si](C)(C)C(C)(C)C)c(=O)n(CC(=O)N[C@@H](CC(=O)O)C(=O)O)c1=O`, the pIC50 [1] was 5.04, the pEC50 [2] was 5.20 and the pIC50 [3] was 4.92. It also gave a CC50 [4] greater than 250 µM.
`CNC(=O)CCCCn1c(=O)c(C)cn([C@@H]2O[C@H](CO[Si](C)(C)C(C)(C)C)[C@@]3(OS(=O)(=O)C=C3N)[C@H]2O[Si](C)(C)C(C)(C)C)c1=O` showed a pIC50 [1] of 5.49, a pEC50 [2] of 7.30 and a pIC50 [3] of 5.17. The CC50 [4] was greater than 250 µM.
In the case of `Cc1cn([C@@H]2O[C@H](CO[Si](C)(C)C(C)(C)C)[C@@H](O)[C@H]2O[Si](C)(C)C(C)(C)C)c(=O)n(CC(=O)O)c1=O`, the pIC50 [1] was 5.18, the pEC50 [2] was 5.27 and the pIC50 [3] was 5.18. It also gave a CC50 [4] of 19 µM.
In the case of `Cc1cn([C@@H]2O[C@H](CO[Si](C)(C)C(C)(C)C)[C@@]3(OS(=O)(=O)C=C3N)[C@H]2O[Si](C)(C)C(C)(C)C)c(=O)n(CCCN(CC(=O)O)CC(=O)O)c1=O`, the pIC50 [1] was 4.97, the pEC50 [2] was 5.08 and the pIC50 [3] was 5.28. It also gave a CC50 [4] of 123 µM.
Compound `Cc1cn([C@@H]2O[C@H](CO[Si](C)(C)C(C)(C)C)[C@@]3(OS(=O)(=O)C=C3N)[C@H]2O[Si](C)(C)C(C)(C)C)c(=O)n(/C=C\CO)c1=O` has a pIC50 [1] of 5.80, a pEC50 [2] of 6.49 and a pIC50 [3] of 5.51. For the same compound, the CC50 [4] was 36 µM.
`Cc1cn([C@@H]2O[C@H](CO[Si](C)(C)C(C)(C)C)[C@@]3(OS(=O)(=O)C(/C=C/CO)=C3N)[C@H]2O[Si](C)(C)C(C)(C)C)c(=O)[nH]c1=O` showed a pIC50 [1] of 5.32, a pEC50 [2] of 5.18 and a pIC50 [3] of 4.80. It also gave a CC50 [4] of 17 µM.
`COC(=O)C(=O)NC1=CS(=O)(=O)O[C@@]12[C@@H](COCc1ccccc1)O[C@@H](n1cc(C)c(=O)n(C)c1=O)[C@@H]2O[Si](C)(C)C(C)(C)C` gave a pIC50 [1] of 5.27, a pEC50 [2] of 5.35 and a pIC50 [3] of 5.14. The CC50 [4] was 4 µM.
Compound `Cc1cn([C@@H]2O[C@H](CO[Si](C)(C)C(C)(C)C)[C@@]3(OS(=O)(=O)C=C3N)[C@H]2O[Si](C)(C)C(C)(C)C)c(=O)n(CC(N)=O)c1=O` has a pIC50 [1] of 5.77, a pEC50 [2] of 7.15 and a pIC50 [3] of 5.15. The CC50 [4] was 18 µM.
`Cc1cn([C@@H]2O[C@H](CO[Si](C)(C)C(C)(C)C)[C@@]3(OS(=O)(=O)C=C3N)[C@H]2O[Si](C)(C)C(C)(C)C)c(=O)n(CC(=O)O)c1=O` gave a pIC50 [1] of 5.49, a pEC50 [2] of 5.21 and a pIC50 [3] of 5.26. The CC50 [4] was greater than 155 µM.
In the case of `Cc1cn([C@@H]2O[C@H](CO[Si](C)(C)C(C)(C)C)[C@@]3(OS(=O)(=O)C=C3N)[C@H]2O[Si](C)(C)C(C)(C)C)c(=O)n(CC(=O)N[C@@H](C)C(=O)O)c1=O`, the pIC50 [1] was 5.51, the pEC50 [2] was 5.24 and the pIC50 [3] was 4.92. It also gave a CC50 [4] greater than 250 µM.
`Cc1cn([C@@H]2O[C@H](CO[Si](C)(C)C(C)(C)C)[C@@]3(OS(=O)(=O)C=C3N)[C@H]2O[Si](C)(C)C(C)(C)C)c(=O)n(CCCN)c1=O` showed a pIC50 [1] of 5.36, a pEC50 [2] of 6.28 and a pIC50 [3] of 5.14. The CC50 [4] was 14 µM.
`CCCn1c(=O)c(C)cn([C@@H]2O[C@H](CO[Si](C)(C)C(C)(C)C)[C@@]3(OS(=O)(=O)C=C3N)[C@H]2O[Si](C)(C)C(C)(C)C)c1=O` gave a pIC50 [1] of 6.30, a pEC50 [2] of 6.59 and a pIC50 [3] of 5.37. The CC50 [4] was 75 µM.
Work on `Cc1cn([C@@H]2O[C@H](CO[Si](C)(C)C(C)(C)C)[C@@]3(OS(=O)(=O)C=C3N)[C@H]2O[Si](C)(C)C(C)(C)C)c(=O)n(CCCO)c1=O` yielded a pIC50 [1] of 6.15, a pEC50 [2] of 7.52 and a pIC50 [3] of 5.80. The CC50 [4] was 4 µM.
In the case of `CC(C)(C)[Si](C)(C)OC[C@H]1O[C@@H](n2nncc2C(N)=O)[C@H](O[Si](C)(C)C(C)(C)C)[C@]12OS(=O)(=O)C=C2N`, the pIC50 [1] was 5.08, the pEC50 [2] was 6.28 and the pIC50 [3] was 5.00. It also gave a CC50 [4] of 15 µM.
